Laboratory results from patent US20210378591A1, “PROCESS FOR VISUAL DETERMINATION OF TISSUE BIOLOGY” (UNIVERSITY COLLEGE DUBLIN, NATIONAL UNIVERSITY OF IRELAND, …, priority 2018, published 2021).

Columns and labels:
[1] = cited from earlier work
[2] = cited from earlier work; remark: listed apart in the source
[3] = Dynamic visual analysis (DVA) of ICG NIR fluorescence intensity, rectal lesion versus healthy background tissue; details: for initial uptake of ICG relative to background tissue: 0.25 mg per kg intravenously, initial phase; for washout of contrast agent: at 25 to 30 minutes

- washout of contrast agent ([3]; benign lesions): most of the ICG tends to washout
- initial uptake of ICG relative to background tissue ([3]; cancerous tissue): a definite lag in the initial uptake
- washout of contrast agent ([3]; cancerous tissue): retains it for longer
SMILES: CC1(C)C(/C=C/C=C/C=C/C=C2\N(CCCCS(=O)(=O)O)c3ccc4ccccc4c3C2(C)C)=[N+](CCCCS(=O)(=O)[O-])c2ccc3ccccc3c21 [ICG, indocyanine green]
- plasma protein binding ([1]; following intravenous injection): rapidly bound to plasma proteins with minimal leakage into the interstitium
- time of excretion by the liver in bile after injection ([1]; intravenous injection): about 8 min
- water solubility [2]: water-soluble but relatively hydrophobic
- initial uptake of ICG relative to background tissue ([3]; benign lesions): either synchronous with the background tissue or was ahead of the background tissue
